# Read-outs that look alike come from different tables or passages of the source.
# Tests used:
# [1] = test system: influx of neutrophils (PMNs) in hyperoxia; assay: rat oxygen-toxicity model of bronchopulmonary dysplasia; format: in vivo, rats; conditions: single 0.2 mg/kg ip injection day 2 after birth, 95% oxygen, sacrifice day 8
# From the text: Mason, S, N.; Richard L. Auten, J. Lung inflammation in hyperoxia can be prevented by antichemokine treatment in newborn rats. American Journal of Respiratory Critical Care Medicine 2000, 162, 2316-2323]. […] Litter sizes were the same. […] Dams were rotated daily between air and oxygen cages to avoid maternal oxygen toxicity. On day 8, the pups were weighed and then euthanized, tracheas are cannulated and the pulmonary artery is perfused with saline. Bronchoalveolar lavage fluid (BALF) was then obtained for cell count and chemokine analysis (FIG. 3). The lungs were removed and snap frozen for myeloperoxidase activity assay (neutrophil accumulation within lung parenchyma) and 8-isoprostane, a marker of lipid oxidation. The pulmonary artery was perfused and the lungs were inflation-fixed with buffered formalin at 25 cm H2O.
# active and passive EAE = assay: rat EAE animal model of multiple sclerosis; format: in vivo
# Method: Using the rat EAE animal model of multiple sclerosis, a series of prophetic studies are performed wherein aminopterin is given to animals using both active and passive protocols for inducing EAE (Burton, Agents and Actions (1989) 27 (3/4): 351-355). In the active protocol, animals are intradermally injected with myelin basic protein (MBP), Freund's adjuvant and mycobacteria, whereas in the passive protocol separate donor rats are immunized actively and then 10-12 days after active immunization, donor splenocytes are collected and stimulated […] with MBP for 3 days, then 1−2×10^8 leukocytes injected iv into each irradiated (600 rads) recipient rat. Aminopterin at doses of 0.0005, 0.001, 0.002, 0.005, 0.008, 0.010, 0.050, 0.1 and 0.5 mg/kg are administered ip on the day after active or passive sensitization.
# [2] = storage of aqueous compositions; format: physicochemical; conditions: six months of storage; water converts aminopterin to folic acid
# From the text: Because of their ease of administration, tablets and capsules represent the most advantageous oral dosage form in adults, in which case solid pharmaceutical carriers are employed. If desired, tablets may be coated by standard aqueous or nonaqueous techniques. The parenteral dosage form can consist of a sterile solution of the active ingredient, either in its free or salt form, in physiological buffer or sterile water. In addition, parenteral solutions can contain preservatives such as benzalkonium chloride, methyl- or propyl-paraben and chlorobutanol. Suitable pharmaceutical carriers are described in Remington's Pharmaceutical Sciences, a standard reference text in this field. […] Accordingly, such aqueous compositions are best stored desiccated and hydrated within several hours to several days prior to patient administration.
# psoriasis [3] = conditions: cited from earlier work
# psoriasis [4] = conditions: 329 patients, schedules of the 1955 study; cited from earlier work
# [5] = test system: rheumatoid arthritis, psoriatic arthritis, uncomplicated psoriasis, and atopic dermatitis; conditions: 0.75-2 mg/day for approximately 1 week and greater; cited from earlier work
# formaldehyde arthritis = conditions: cumulative weekly doses of 0.3 mg/kg; cited from earlier work
# dermal inflammation = conditions: cumulative weekly doses of 0.35 mg/kg; cited from earlier work
# adjuvant arthritis = conditions: cumulative weekly doses of 0.12 mg/kg; cited from earlier work
smiles,measurement,setting,value
"Nc1nc(N)c2nc(CNc3ccc(C(=O)N[C@@H](CCC(=O)O)C(=O)O)cc3)cnc2n1 [aminopterin, 4-amino-pteroyl-L-glutamic acid]",number of neutrophils in bronchoalveolar lavage fluid,[1],statistically significant reduction
same,persistence of inhibition after the single dose,active and passive EAE; active or passive EAE,up to 14 days
same,dose-response over the range of doses,active and passive EAE; sensitized actively or passively,clear dose-response
same,inhibition of the onset of active EAE,"active and passive EAE; single ip dose (0.0005-0.5 mg/kg) day after active sensitization, one or more of the doses",greater than 80%
same,inhibition of the onset of passive EAE,"active and passive EAE; single ip dose (0.0005-0.5 mg/kg) day after passive sensitization, one or more of the doses",greater than 80%
same,"stability of parenteral, oral liquid or other aqueous compositions",[2],accumulate folic acid to undesirable levels
same,frequency of toxic reactions,psoriasis [3]; schedule (i): 1 tablet (0.5 mg) daily for six days,0%
same,frequency of toxic reactions,"psoriasis [3]; schedule (ii): 1 tablet daily six days, one week rest, 1 tablet daily six days",2.5%
same,frequency of toxic reactions,psoriasis [3]; schedule (iii): 1 tablet daily for 12 days,13%
same,frequency of toxic reactions,psoriasis [3]; schedule (iv): 2 tablets daily for six days,30%
same,overall incidence of toxicity,psoriasis [4],21%
same,toxic reactions,[5],the majority of patients developed toxic reactions
same,efficacy,formaldehyde arthritis,demonstrated the efficacy
same,efficacy,dermal inflammation,demonstrated the efficacy
same,toxicity,dermal inflammation,the animals became severely leucopenic and one subject died
same,efficacy,adjuvant arthritis,demonstrated the efficacy
same,toxicity,adjuvant arthritis,severe toxicity

# From patent publication US8129383B2, “Aminopterin dosage forms and methods for inflammatory disorders” (Aminopterin LLC, priority 2005, dated 2012)
